What follows are molecules tested against Acetylcholinesterase (Electrophorus electricus, UniProt O42275) (assay: Inhibition of electric eel AChE by modified Ellman method).
Acetylcholinesterase, sequence (O42275 whole entry): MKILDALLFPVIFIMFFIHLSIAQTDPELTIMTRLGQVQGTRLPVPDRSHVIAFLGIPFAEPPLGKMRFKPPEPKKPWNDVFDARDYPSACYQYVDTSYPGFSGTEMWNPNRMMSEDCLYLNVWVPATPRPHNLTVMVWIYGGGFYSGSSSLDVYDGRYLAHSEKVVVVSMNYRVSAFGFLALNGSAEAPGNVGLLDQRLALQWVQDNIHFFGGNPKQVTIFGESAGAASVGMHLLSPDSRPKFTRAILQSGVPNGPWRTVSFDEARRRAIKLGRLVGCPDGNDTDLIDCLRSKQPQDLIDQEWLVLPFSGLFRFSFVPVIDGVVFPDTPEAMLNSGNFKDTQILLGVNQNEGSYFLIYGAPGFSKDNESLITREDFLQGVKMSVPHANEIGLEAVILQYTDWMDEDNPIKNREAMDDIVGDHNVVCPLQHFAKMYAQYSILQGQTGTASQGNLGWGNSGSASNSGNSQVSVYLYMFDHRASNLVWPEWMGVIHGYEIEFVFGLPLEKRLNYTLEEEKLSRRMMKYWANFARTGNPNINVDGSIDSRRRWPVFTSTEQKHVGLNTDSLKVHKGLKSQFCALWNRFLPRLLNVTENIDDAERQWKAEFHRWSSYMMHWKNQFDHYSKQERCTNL
`O=C1/C(=C/c2ccccc2)CN2CC13[C@@H](c1ccccc1)C1CCCN1C31C(=O)c3ccccc3C21O` (stereo not given in full) gave an IC50 of 6.86 µM. With `Cc1ccccc1/C=C1\CN2CC3(C1=O)[C@@H](c1ccccc1C)C1CCCN1C31C(=O)c3ccccc3C21O` (stereo not given in full) the IC50 was 1.2 µM. With `O=C1/C(=C/c2ccccc2Cl)CN2CC13[C@@H](c1ccccc1Cl)C1CCCN1C31C(=O)c3ccccc3C21O` (stereo not given in full) the IC50 was 5.12 µM. `O=C1/C(=C/c2ccc(Cl)cc2Cl)CN2CC13[C@@H](c1ccc(Cl)cc1Cl)C1CCCN1C31C(=O)c3ccccc3C21O` (stereo not given in full) was tested, and the IC50 was 12.2 µM. `O=C1/C(=C/c2cccc([N+](=O)[O-])c2)CN2CC13[C@@H](c1cccc([N+](=O)[O-])c1)C1CCCN1C31C(=O)c3ccccc3C21O` (stereo not given in full) showed an IC50 of 6.2 µM. Molecule `Cc1ccc(/C=C2\CN3CC4(C2=O)[C@@H](c2ccc(C)cc2)C2CCCN2C42C(=O)c4ccccc4C32O)cc1` (stereo not given in full) has an IC50 of 0.72 µM. `O=C1/C(=C/c2ccc(Cl)cc2)CN2CC13[C@@H](c1ccc(Cl)cc1)C1CCCN1C31C(=O)c3ccccc3C21O` (stereo not given in full) showed an IC50 of 11.2 µM. `O=C1/C(=C/c2ccc(Br)cc2)CN2CC13[C@@H](c1ccc(Br)cc1)C1CCCN1C31C(=O)c3ccccc3C21O` (stereo not given in full) showed an IC50 of 9.26 µM. With `O=C1/C(=C/c2ccc(F)cc2)CN2CC13[C@@H](c1ccc(F)cc1)C1CCCN1C31C(=O)c3ccccc3C21O` (stereo not given in full) the IC50 was 11.3 µM. `O=C1/C(=C/c2cccc3ccccc23)CN2CC13[C@@H](c1cccc4ccccc14)C1CCCN1C31C(=O)c3ccccc3C21O` (stereo not given in full) gave an IC50 of 2.12 µM.
